The nature of test [1]: Oxygen Radical Absorbance Capacity (ORAC). To be noted: Trolox equivalents.

Take `O=C(O)c1cc(O)c(O)c(O)c1` [Gallic acid, gallic acid]: the “ORAC (μmol TE/gm)” value in test [1] is on record as 6712 μmol TE/gm. In “DPPH scavenging”, the “DPPH IC50” value came to 0.32 µg/mL.

`O=C1O[C@H]([C@@H](O)CO)C(O)=C1O` [Vitamin C, Ascorbic acid]: the “ORAC (μmol TE/gm)” value in test [1] is 3400 μmol TE/gm. For the same compound, the “DPPH IC50” value in the test “DPPH scavenging” was 1.93 µg/mL.
